Structures are written as SMILES.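 Protocol summary: plate cells (96-well), add compound at 5 concentrations, incubate 48 h, interpolate endpoints linearly. Here, GI50 denotes the concentration required for 50% inhibition of growth. At the TGI there is no net growth.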

The test system of one assay is 786-0 renal. Description: NCI-60 cell line screen, 48 h.
For the compound `Fc1c(F)c(C(F)(F)F)c(F)c(F)c1N/N=C\c1c[nH]c2ccccc12`, the TGI was 14.5 µM.
Same read-out and setting: to `COc1cc2c(/C=C3/C(=O)Nc4ccc(Cl)cc43)c(Cl)n(Cc3ccccc3)c2cc1C` belongs 6.41 µM.
The same measure, in the same setting: to `NS(=O)(=O)c1cc2c(cc1Cl)NC(C(=O)c1cc(=O)c3ccc(O)cc3o1)=NS2(=O)=O` belongs over 100 µM; to `CC(=O)OCC(=O)[C@@]1(O)CC[C@H]2[C@@H]3CCC4=CC(=O)[C@H](C)C[C@]4(C)[C@H]3[C@@H](O)C[C@@]21C`, over 100 µM.
Compound `O=C(NO)c1ccc([N+](=O)[O-])cc1` had a TGI of over 100 µM.

Another assay concerns DLD-1 colon. Nature of the assay: NCI-60 cell line screen, 48 h.
Take `NS(=O)(=O)c1cc2c(cc1Cl)NC(C(=O)c1cc(=O)c3ccc(O)cc3o1)=NS2(=O)=O`: the TGI was over 100 µM.
Regarding `CC(=O)OCC(=O)[C@@]1(O)CC[C@H]2[C@@H]3CCC4=CC(=O)[C@H](C)C[C@]4(C)[C@H]3[C@@H](O)C[C@@]21C`, the TGI was over 100 µM.
The same measure, in the same setting: the value for `O=C(NO)c1ccc([N+](=O)[O-])cc1` was over 100 µM.

The next assay has as its system DMS 114 small cell lung. Nature of the assay: NCI-60 cell line screen, 48 h.
Take `NS(=O)(=O)c1cc2c(cc1Cl)NC(C(=O)c1cc(=O)c3ccc(O)cc3o1)=NS2(=O)=O`: the TGI was over 100 µM.
Same read-out and setting: to `CC(=O)OCC(=O)[C@@]1(O)CC[C@H]2[C@@H]3CCC4=CC(=O)[C@H](C)C[C@]4(C)[C@H]3[C@@H](O)C[C@@]21C` belongs over 100 µM; to `O=C(NO)c1ccc([N+](=O)[O-])cc1`, over 100 µM.

A further assay has as its system DMS 273 small cell lung. Nature of the assay: NCI-60 cell line screen, 48 h.
For the compound `NS(=O)(=O)c1cc2c(cc1Cl)NC(C(=O)c1cc(=O)c3ccc(O)cc3o1)=NS2(=O)=O`, the TGI was over 100 µM.
Same read-out and setting: the value for `CC(=O)OCC(=O)[C@@]1(O)CC[C@H]2[C@@H]3CCC4=CC(=O)[C@H](C)C[C@]4(C)[C@H]3[C@@H](O)C[C@@]21C` was over 100 µM.
Regarding `O=C(NO)c1ccc([N+](=O)[O-])cc1`, the TGI was over 100 µM.

The subject of another assay is HS 578T breast. Nature of the assay: NCI-60 cell line screen, 48 h.
`Fc1c(F)c(C(F)(F)F)c(F)c(F)c1N/N=C\c1c[nH]c2ccccc12`: the TGI was determined as 28.9 µM.
Still for that read-out and setting: the value for `COc1cc2c(/C=C3/C(=O)Nc4ccc(Cl)cc43)c(Cl)n(Cc3ccccc3)c2cc1C` was over 100 µM; that for `O=C(O)C(=C\c1ccc2c(c1)OCO2)/C(=C/c1ccc2c(c1)OCO2)C(=O)O` was over 100 µM.
`COc1ccc2c(c1)CC[C@@H]1[C@@H]2CC[C@]2(C)C(=O)C3(CCCCC3)C[C@@H]12`: the GI50 was 88.1 µM and the TGI was over 100 µM.

The next assay concerns KM20L2 colon. Nature of the assay: NCI-60 cell line screen, 48 h.
On to `NS(=O)(=O)c1cc2c(cc1Cl)NC(C(=O)c1cc(=O)c3ccc(O)cc3o1)=NS2(=O)=O`, for which the TGI is over 100 µM.
Same read-out and setting: the value for `CC(=O)OCC(=O)[C@@]1(O)CC[C@H]2[C@@H]3CCC4=CC(=O)[C@H](C)C[C@]4(C)[C@H]3[C@@H](O)C[C@@]21C` was over 100 µM; that for `O=C(NO)c1ccc([N+](=O)[O-])cc1` was over 100 µM.

The next assay concerns M19-MEL melanoma. Nature of the assay: NCI-60 cell line screen, 48 h.
Regarding `NS(=O)(=O)c1cc2c(cc1Cl)NC(C(=O)c1cc(=O)c3ccc(O)cc3o1)=NS2(=O)=O`, the TGI is over 100 µM.
On the same count and under the same terms, the value for `CC(=O)OCC(=O)[C@@]1(O)CC[C@H]2[C@@H]3CCC4=CC(=O)[C@H](C)C[C@]4(C)[C@H]3[C@@H](O)C[C@@]21C` was over 100 µM.
The same measure, in the same setting: the value for `O=C(NO)c1ccc([N+](=O)[O-])cc1` was over 100 µM.

The test system of a further assay is MCF7 breast. Nature of the assay: NCI-60 cell line screen, 48 h.
The compound `Fc1c(F)c(C(F)(F)F)c(F)c(F)c1N/N=C\c1c[nH]c2ccccc12` registered a TGI of 10.3 µM.
On the same count and under the same terms, the value for `COc1cc2c(/C=C3/C(=O)Nc4ccc(Cl)cc43)c(Cl)n(Cc3ccccc3)c2cc1C` was over 100 µM; that for `O=C(O)C(=C\c1ccc2c(c1)OCO2)/C(=C/c1ccc2c(c1)OCO2)C(=O)O` was over 100 µM.
Take `N#CC(C#N)=CN1CCN(C(=O)c2ccco2)C1=S`: the GI50 is 3.45 µM and the TGI was 28.4 µM.
Consider `Cc1c(C#N)c2nnn(C)c(=O)n2c1-c1ccccc1`, for which the TGI is over 100 µM.

For the next assay, the system named is MDA-N. Nature of the assay: NCI-60 cell line screen, 48 h.
Compound `Fc1c(F)c(C(F)(F)F)c(F)c(F)c1N/N=C\c1c[nH]c2ccccc12` gave a TGI of 3.61 µM.
On the same count and under the same terms, the value for `O=C(O)C(=C\c1ccc2c(c1)OCO2)/C(=C/c1ccc2c(c1)OCO2)C(=O)O` was over 100 µM; that for `Cc1c(C#N)c2nnn(C)c(=O)n2c1-c1ccccc1` was over 100 µM.

In a further assay the test system is NCI-H226 lung. Description: NCI-60 cell line screen, 48 h.
`COc1cc2c(/C=C3/C(=O)Nc4ccc(Cl)cc43)c(Cl)n(Cc3ccccc3)c2cc1C` displayed a TGI of 9.61 µM.
`O=C(O)C(=C\c1ccc2c(c1)OCO2)/C(=C/c1ccc2c(c1)OCO2)C(=O)O` showed a TGI of over 100 µM.
For the compound `COc1ccc2c(c1)CC[C@@H]1[C@@H]2CC[C@]2(C)C(=O)C3(CCCCC3)C[C@@H]12`, the GI50 is over 100 µM and the TGI was over 100 µM.
`NS(=O)(=O)c1cc2c(cc1Cl)NC(C(=O)c1cc(=O)c3ccc(O)cc3o1)=NS2(=O)=O` yielded a TGI of over 100 µM.
The same measure, in the same setting: to `CC(=O)OCC(=O)[C@@]1(O)CC[C@H]2[C@@H]3CCC4=CC(=O)[C@H](C)C[C@]4(C)[C@H]3[C@@H](O)C[C@@]21C` belongs over 100 µM.
Same read-out and setting: to `O=C(NO)c1ccc([N+](=O)[O-])cc1` belongs over 100 µM.
The same measure, in the same setting: the value for `Cc1c(C#N)c2nnn(C)c(=O)n2c1-c1ccccc1` was over 100 µM.

The test system of the next assay is NCI-H522 lung. Nature of the assay: NCI-60 cell line screen, 48 h.
For the compound `Fc1c(F)c(C(F)(F)F)c(F)c(F)c1N/N=C\c1c[nH]c2ccccc12`, the TGI was determined as 5.57 µM.
For `COc1ccc2c(c1)CC[C@@H]1[C@@H]2CC[C@]2(C)C(=O)C3(CCCCC3)C[C@@H]12`, the GI50 is over 100 µM and the TGI is over 100 µM.
Compound `NS(=O)(=O)c1cc2c(cc1Cl)NC(C(=O)c1cc(=O)c3ccc(O)cc3o1)=NS2(=O)=O` registered a TGI of over 100 µM.
Turning to `CC(=O)OCC(=O)[C@@]1(O)CC[C@H]2[C@@H]3CCC4=CC(=O)[C@H](C)C[C@]4(C)[C@H]3[C@@H](O)C[C@@]21C`, the TGI was over 100 µM.
On the same count and under the same terms, the value for `O=C(NO)c1ccc([N+](=O)[O-])cc1` was 97.2 µM.

Another assay deals with OVCAR-3 ovarian. Nature of the assay: NCI-60 cell line screen, 48 h.
As for `Fc1c(F)c(C(F)(F)F)c(F)c(F)c1N/N=C\c1c[nH]c2ccccc12`, the TGI amounted to 4.7 µM.
Take `COc1cc2c(/C=C3/C(=O)Nc4ccc(Cl)cc43)c(Cl)n(Cc3ccccc3)c2cc1C`: the TGI was 4.83 µM.
On the same count and under the same terms, the value for `O=C(O)C(=C\c1ccc2c(c1)OCO2)/C(=C/c1ccc2c(c1)OCO2)C(=O)O` was over 100 µM.
Consider `COc1ccc(-c2ccc(-c3ccc(C(=N)N)nc3)s2)cc1`, for which the GI50 is 1.82 µM and the TGI is 3.27 µM.
On to `N#CC(C#N)=CN1CCN(C(=O)c2ccco2)C1=S`, for which the GI50 is 11.2 µM and the TGI is over 100 µM.
The like results for `COc1ccc2c(c1)CC[C@@H]1[C@@H]2CC[C@]2(C)C(=O)C3(CCCCC3)C[C@@H]12` were, in that order, over 100 µM and over 100 µM.
Compound `NS(=O)(=O)c1cc2c(cc1Cl)NC(C(=O)c1cc(=O)c3ccc(O)cc3o1)=NS2(=O)=O` showed a TGI of over 100 µM.
Still for that read-out and setting: to `CC(=O)OCC(=O)[C@@]1(O)CC[C@H]2[C@@H]3CCC4=CC(=O)[C@H](C)C[C@]4(C)[C@H]3[C@@H](O)C[C@@]21C` belongs over 100 µM; to `O=C(NO)c1ccc([N+](=O)[O-])cc1`, over 100 µM.
`Cc1c(C#N)c2nnn(C)c(=O)n2c1-c1ccccc1` registered a TGI of over 100 µM.

For another assay, the system named is SF-295 CNS. Description: NCI-60 cell line screen, 48 h.
`Fc1c(F)c(C(F)(F)F)c(F)c(F)c1N/N=C\c1c[nH]c2ccccc12` gave a TGI of 6.82 µM.
Same read-out and setting: to `COc1cc2c(/C=C3/C(=O)Nc4ccc(Cl)cc43)c(Cl)n(Cc3ccccc3)c2cc1C` belongs 7.19 µM; to `O=C(O)C(=C\c1ccc2c(c1)OCO2)/C(=C/c1ccc2c(c1)OCO2)C(=O)O`, over 100 µM.
With `COc1ccc(-c2ccc(-c3ccc(C(=N)N)nc3)s2)cc1`, the GI50 is 1.71 µM and the TGI is 3.1 µM.
The like results for `N#CC(C#N)=CN1CCN(C(=O)c2ccco2)C1=S` were, in that order, 31.3 µM and over 100 µM.
Take `COc1ccc2c(c1)CC[C@@H]1[C@@H]2CC[C@]2(C)C(=O)C3(CCCCC3)C[C@@H]12`: the GI50 was over 100 µM and the TGI was over 100 µM.
On to `NS(=O)(=O)c1cc2c(cc1Cl)NC(C(=O)c1cc(=O)c3ccc(O)cc3o1)=NS2(=O)=O`, for which the TGI was over 100 µM.
Same read-out and setting: the value for `CC(=O)OCC(=O)[C@@]1(O)CC[C@H]2[C@@H]3CCC4=CC(=O)[C@H](C)C[C@]4(C)[C@H]3[C@@H](O)C[C@@]21C` was over 100 µM; that for `O=C(NO)c1ccc([N+](=O)[O-])cc1` was over 100 µM; that for `Cc1c(C#N)c2nnn(C)c(=O)n2c1-c1ccccc1` was over 100 µM.

A further assay has as its system XF 498 CNS. Description: NCI-60 cell line screen, 48 h.
For the compound `NS(=O)(=O)c1cc2c(cc1Cl)NC(C(=O)c1cc(=O)c3ccc(O)cc3o1)=NS2(=O)=O`, the TGI was over 100 µM.
`CC(=O)OCC(=O)[C@@]1(O)CC[C@H]2[C@@H]3CCC4=CC(=O)[C@H](C)C[C@]4(C)[C@H]3[C@@H](O)C[C@@]21C` came in with a TGI of over 100 µM.
`O=C(NO)c1ccc([N+](=O)[O-])cc1`: the TGI was over 100 µM.

Values taken from PubChem BioAssay (NCI).
